Results reported in PubChem BioAssay (NCI).
“And” between values parts separate entries of the source, which are not always exact repeats. Identical values can stand only once.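 These data come from cells grown in 96-well plates and exposed to compound for 48 hours at five concentrations. At the GI50, growth is halved. TGI: concentration producing complete growth inhibition.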

What was measured:
Experiment in all cases: NCI anticancer screen, dose series, 48 h
TK-10 renal = test system: TK-10 renal
HOP-62 NSCLC = test system: HOP-62 NSCLC
NCI-H460 lung = test system: NCI-H460 lung
ACHN renal = test system: ACHN renal
CCRF-CEM leukemia = test system: CCRF-CEM leukemia
SF-295 CNS = test system: SF-295 CNS
LOX IMVI melanoma = test system: LOX IMVI melanoma
HL-60(TB) leukemia = test system: HL-60(TB) leukemia
OVCAR-5 ovarian = test system: OVCAR-5 ovarian
COLO 205 colon = test system: COLO 205 colon

| Structure (SMILES) | GI50 (TK-10 renal) [µM] | TGI (TK-10 renal) [µM] | GI50 (HOP-62 NSCLC) [µM] | TGI (HOP-62 NSCLC) [µM] | GI50 (NCI-H460 lung) [µM] | TGI (NCI-H460 lung) [µM] | GI50 (ACHN renal) [µM] | TGI (ACHN renal) [µM] | GI50 (CCRF-CEM leukemia) [µM] | TGI (CCRF-CEM leukemia) [µM] | GI50 (SF-295 CNS) [µM] | TGI (SF-295 CNS) [µM] | GI50 (LOX IMVI melanoma) [µM] | TGI (LOX IMVI melanoma) [µM] | GI50 (HL-60(TB) leukemia) [µM] | TGI (HL-60(TB) leukemia) | GI50 (OVCAR-5 ovarian) [µM] | TGI (OVCAR-5 ovarian) [µM] | TGI (COLO 205 colon) | GI50 (COLO 205 colon) [µM] |
| --- | --- | --- | --- | --- | --- | --- | --- | --- | --- | --- | --- | --- | --- | --- | --- | --- | --- | --- | --- | --- |
| OC(c1cccc(-n2ccc(C(F)(F)F)n2)c1)c1cnccc1NC1CCCCCC1 (configuration not stated) | 1.77 | 3.49 | 1.95 | 3.84 | 1.84 | 3.42 | 1.65 | 3.02 | 2.35 | 6.04 | 1.79 | 3.2 | 1.69 | 3.12 | 2.06 | 4.26 µM | 1.64 | 3.01 |  |  |
| Cc1ccc(S(=O)(=O)OC2CCN(C)CC2)cc1 |  | > 100 |  | > 100 |  | > 100 |  | > 100 |  |  |  | > 100 |  | > 100 |  | 37.3 µM |  | > 100 | 42.3 µM |  |
| Cc1ccc(S(=O)(=O)N[C@H](C(=O)O)c2ccccc2)cc1 |  | > 100 |  |  |  | > 100 |  | > 100 |  | > 100 |  | > 100 |  | > 100 |  | > 100 µM |  | > 100 | > 100 µM |  |
| COc1ccc(-c2cc(-c3cc(Cl)ccc3Cl)nc3n[nH]c(N)c23)cc1 | 41.2 | > 100 | 14.7 | 84.6 | 6.68 | 39.3 | 37.8 | > 100 | 31 | 90.7 | 6.62 | > 100 | 20.1 | > 100 |  |  | 58.2 | > 100 | > 100 µM | 34.6 |
| Cc1ccc(NC(=O)c2cc3cc(N=Nc4ccc(Br)cc4)ccc3oc2=O)cc1 |  | > 100 |  |  |  | > 100 |  | > 100 |  |  |  | > 100 |  | > 100 |  | > 100 µM |  | > 100 | > 100 µM |  |
| CC1CC[C@]2(C(=O)O)CCC3(COC(=O)/C=C\c4ccc(O)cc4)C(=CCC4[C@@]5(C)CC[C@H](O)C(C)(C)C5CC[C@]43C)[C@@H]2[C@H]1C (some centres not stated) |  | 44.7 |  |  |  | 35.5 |  | 22.5 |  | 81.9 |  | 31.7 |  | 28.2 |  | 72.8 µM |  | 48.9 | 50.9 µM |  |
| COc1cc(C2c3[nH]c4ccccc4c3C[C@H]3COC(=O)N23)cc(OC)c1OC (some centres not stated) | < 0.01 | > 100 | < 0.01 |  | < 0.01 |  | < 0.01 | > 100 |  | 0.0789 |  |  | < 0.01 |  | < 0.01 | 0.0961 µM and < 0.01 µM |  |  | 0.287 µM and 0.0434 µM | < 0.01 |
| Cc1nc(-c2cccc(Nc3nc(-c4ccc(Cl)cc4)cs3)c2)cs1 | 8.31 | 17.8 | 12.3 | 24.5 | 12.4 | 31.6 | 10.1 | 17.5 |  |  | 10.6 | 28.5 | 7.3 | 13.9 | 19.8 | > 50 µM |  |  | 31.1 µM | 11.9 |
| N=C(N)c1ccc(OCc2cccc(COc3ccc(C(=N)N)cc3)c2)cc1 | 7.61 | 21 |  |  | 4.27 | 20 | 17.8 | 49.3 |  |  | 2.82 | 9.35 |  |  |  |  | 29.1 | > 100 | 40.3 µM | 15.1 |
| Cc1ccc2c(c1)C(C)Cc1c(ncnc1-n1cnc3ccccc31)N2C (configuration not stated) | 13.1 | 29.4 | 0.433 | 16 | 0.38 | 12 | 0.953 | 20.3 | 0.267 | 12.6 | 0.189 | 11.8 | 0.705 | 16.2 | 0.255 | 0.705 µM |  |  | 0.818 µM | 0.285 |
| COc1ccccc1/C=C(\C#N)c1ccccc1 |  | 95.6 |  | > 100 |  | 74.1 |  | > 100 |  | 55.2 |  | > 100 |  | > 100 |  |  |  | > 100 | 32.4 µM |  |
| CN1N=CSC12C(=O)N(c1ccc(Cl)cc1)C(=O)N2c1ccc(Cl)cc1 (configuration not stated) |  | 81.1 |  | 15.5 |  | 20.4 |  |  |  | > 100 |  | 9.16 |  | 8.91 |  | 5.09 µM |  |  | 3.38 µM |  |
| COc1ccccc1NC(=O)c1sc2nc3c(cc2c1N)C(=O)CCC3 |  |  | 2.37 | 7.17 | 3.06 | > 100 | 6.2 | > 100 | > 100 | > 100 | 1.75 | > 100 | > 100 | > 100 | > 100 | > 100 µM |  |  | > 100 µM | 2.03 |
| O=C1C(Cl)=C(Nc2cccc(Cl)c2)C(=O)N1Cc1ccccc1 | 13.9 | 32.3 | 11.2 | 24.4 | 7.11 | 27.9 | 14 | 28.8 | 2.39 | > 100 | 6.28 | 20.1 | 4.01 | 15.3 |  |  | 9.49 | 33.1 | > 100 µM | 15.7 |
| O=C(Nc1ccccc1-c1n[nH]c(=S)[nH]c1=O)C(F)(F)F |  | > 100 |  | > 100 |  | > 100 |  | > 100 |  | > 100 |  | > 100 |  | > 100 |  |  |  | > 100 | > 100 µM |  |
| CCOC(=O)c1c2c(c(O)c3ccccc3c(O)n(Cc3ccc(OC)cc3)c1C)C(=O)C=CC2=O | > 100 | > 100 | > 100 | > 100 | > 100 | > 100 | > 100 | > 100 |  |  | > 100 | > 100 | > 100 | > 100 |  |  | > 100 | > 100 | > 100 µM | > 100 |
| CC(C)(C)OC1=C(OC(C)(C)C)C(O)(c2ccccc2)C1=O (configuration not stated) |  | > 100 |  |  |  | > 100 |  | > 100 |  | > 100 |  | > 100 |  | > 100 |  | > 100 µM |  | > 100 | > 100 µM |  |
| CCCCC[C@H](O)/C=C/[C@@H]1[C@@H](C/C=C\CCCC(=O)O)[C@@H](O)C[C@H]1O | > 100 | > 100 |  |  | > 100 | > 100 | > 100 | > 100 | > 100 | > 100 | > 100 | > 100 | > 100 | > 100 | > 100 | > 100 µM | > 100 | > 100 | > 100 µM | > 100 |
